The values that follow are results of earlier work, collected in patent publication US20040048871A1, “Use of high dose intravenous methotrexate, with leucovorin rescue, to treat early multiple sclerosis and other diseases of the central nervous system” (priority 2002, published 2004).

Read-outs that look alike come from different tables or passages of the source.

For data set [1] the following is noted: 8 g/m^2, four hour IV infusion, with leucovorin rescue.
For data set [2] the following is noted: for crossing of the blood brain barrier (BBB): in vivo.
The conditions of data set [3]: 2.5 g/m^2 sporadically via IV infusion, with leucovorin rescue.
For data set [4] the following is noted: in vivo.
The mark [5] stands for this setting: low-dose methotrexate 7.5 mg/week, orally.

Take `CN(Cc1cnc2nc(N)nc(N)c2n1)c1ccc(C(=O)N[C@@H](CCC(=O)O)C(=O)O)cc1` [methotrexate]: in data set [1], the “results in treating CNS lymphomas” value is listed as “promising results” and the toxicity result was “low toxicity”. In data set [2] (administered orally), the “serum level sufficient to cross the BBB in cytotoxic amounts” value is “not sufficient to cross the BBB in cytotoxic amounts”. For the same compound, the toxicity result in data set [3] is recorded as “no significant toxicity”. Further, under setting [5], the “effect on the course of progressive MS” value is “impact the course of progressive MS” and the toxicity entry is “minimal toxicity”. Moreover, the “upper extremity strength in MS patients” value (oral methotrexate treatments) was “mild improvement”.

In the case of `Nc1nc2c(c(=O)[nH]1)N(C=O)C(CNc1ccc(C(=O)N[C@@H](CCC(=O)O)C(=O)O)cc1)CN2` (some centres unmarked) [leucovorin], in data set [2], the “crossing of the blood brain barrier (BBB)” value (from here on “crossing”) is “does not penetrate the BBB”.

Take `O=C1c2c(O)ccc(O)c2C(=O)c2c(NCCNCCO)ccc(NCCNCCO)c21` [mitoxantrone]: in data set [2], the “crossing” value is recorded as “do not cross the blood brain barrier”.

On to `O=P1(N(CCCl)CCCl)NCCCO1` (centres unmarked) [cyclophosphamide], for which the “efficacy against the progression of MS” value in data set [4] was “some efficacy”. For the same compound, in data set [2], the “crossing” value is recorded as “do not cross the blood brain barrier”.
